Results published in ChEMBL document CHEMBL5303573, “Mapping human microbiome drug metabolism by gut bacteria and their genes” (Nature, 2019).

How the values were obtained:
[1] = The drug is tested on Eggerthella lenta strain: ATCC25559 for biotransformation. The drug concentrations were measured before and after a 12-h incubation by liquid-chromatography-coupled mass spectrometry (LC–MS); conditions: 2 µM
[2] = The drug is tested on Bacteroides coprophilus strain: DSM18228 for biotransformation. The drug concentrations were measured before and after a 12-h incubation by liquid-chromatography-coupled mass spectrometry (LC–MS); conditions: 2 µM
[3] = The drug is tested on Bacteroides dorei strain: DSM17855 for biotransformation. The drug concentrations were measured before and after a 12-h incubation by liquid-chromatography-coupled mass spectrometry (LC–MS); conditions: phocaeicola dorei, 2 µM
[4] = The drug is tested on Bacteroides ovatus strain: ATCC8483 for biotransformation. The drug concentrations were measured before and after a 12-h incubation by liquid-chromatography-coupled mass spectrometry (LC–MS); conditions: 2 µM
[5] = The drug is tested on Bacteroides sp. WH2 strain: WH2 for biotransformation. The drug concentrations were measured before and after a 12-h incubation by liquid-chromatography-coupled mass spectrometry (LC–MS); conditions: bacteroides sp. wh2, 12 h, 2 µM
[6] = The drug is tested on Bacteroides xylanisolvens strain: DSM18836 for biotransformation. The drug concentrations were measured before and after a 12-h incubation by liquid-chromatography-coupled mass spectrometry (LC–MS); conditions: 2 µM
[7] = The drug is tested on Blautia luti strain: DSM14534 for biotransformation. The drug concentrations were measured before and after a 12-h incubation by liquid-chromatography-coupled mass spectrometry (LC–MS); assay type: ADME; design: dose 2 uM, timepoint 0 vs 12 hours; conditions: 2 µM
[8] = The drug is tested on Clostridium symbiosum strain: ATCC14940 for biotransformation. The drug concentrations were measured before and after a 12-h incubation by liquid-chromatography-coupled mass spectrometry (LC–MS); conditions: 2 µM
[9] = The drug is tested on Coprococcus comes strain: ATCC27758 for biotransformation. The drug concentrations were measured before and after a 12-h incubation by liquid-chromatography-coupled mass spectrometry (LC–MS); assay type: ADME; design: dose 2 uM, timepoint 0 vs 12 hours; conditions: 2 µM
[10] = The drug is tested on Eubacterium ventriosum strain: ATCC27560 for biotransformation. The drug concentrations were measured before and after a 12-h incubation by liquid-chromatography-coupled mass spectrometry (LC–MS); assay type: ADME; design: dose 2 uM, timepoint 0 vs 12 hours; conditions: 2 µM
[11] = The drug is tested on Ruminococcus torques strain: ATCC27756 for biotransformation. The drug concentrations were measured before and after a 12-h incubation by liquid-chromatography-coupled mass spectrometry (LC–MS); assay type: ADME; design: dose 2 uM, timepoint 0 vs 12 hours; conditions: 2 µM
[12] = The drug is tested on Edwardsiella tarda strain: ATCC23685 for biotransformation. The drug concentrations were measured before and after a 12-h incubation by liquid-chromatography-coupled mass spectrometry (LC–MS); conditions: 2 µM
[13] = The drug is tested on Providencia rettgeri strain: DSM1131 for biotransformation. The drug concentrations were measured before and after a 12-h incubation by liquid-chromatography-coupled mass spectrometry (LC–MS); assay type: ADME; design: dose 2 uM, timepoint 0 vs 12 hours; conditions: 2 µM
[14] = bacteroides eggerthii, 12 h, 2 µM
Description: The drug is tested on Bacteroides eggerthii strain: DSM20697 for biotransformation. The drug concentrations were measured before and after a 12-h incubation by liquid-chromatography-coupled mass spectrometry (LC–MS)

[15] = bacteroides thetaiotaomicron, 12 h, 2 µM
Description: The drug is tested on Bacteroides thetaiotaomicron strain: 7330 for biotransformation. The drug concentrations were measured before and after a 12-h incubation by liquid-chromatography-coupled mass spectrometry (LC–MS)

[16] = The drug is tested on Bacteroides cellulosilyticus strain: DSM14838 for biotransformation. The drug concentrations were measured before and after a 12-h incubation by liquid-chromatography-coupled mass spectrometry (LC–MS); conditions: 2 µM
[17] = The drug is tested on Bacteroides fragilis strain: ATCC43859 for biotransformation. The drug concentrations were measured before and after a 12-h incubation by liquid-chromatography-coupled mass spectrometry (LC–MS); conditions: 2 µM
[18] = The drug is tested on Clostridium ramosum strain: DSM1402 for biotransformation. The drug concentrations were measured before and after a 12-h incubation by liquid-chromatography-coupled mass spectrometry (LC–MS); conditions: thomasclavelia ramosa, 2 µM
[19] = The drug is tested on Enterococcus faecalis strain: V583 for biotransformation. The drug concentrations were measured before and after a 12-h incubation by liquid-chromatography-coupled mass spectrometry (LC–MS); conditions: 2 µM
[20] = akkermansia muciniphila, 12 h, 2 µM
Description: The drug is tested on Akkermansia muciniphila strain: ATCC BAA-835 for biotransformation. The drug concentrations were measured before and after a 12-h incubation by liquid-chromatography-coupled mass spectrometry (LC–MS)

Bacterial Biotransformation [2]	Bacterial Biotransformation [3]	Bacterial Biotransformation [4]	Bacterial Biotransformation [5]	Bacterial Biotransformation [7]	Bacterial Biotransformation [8]	Bacterial Biotransformation [9]	Bacterial Biotransformation [10]	Bacterial Biotransformation [11]	Bacterial Biotransformation [12]	Bacterial Biotransformation [13]	Bacterial Biotransformation [14]	Bacterial Biotransformation [15]	Bacterial Biotransformation [16]	Bacterial Biotransformation [17]	Bacterial Biotransformation [18]	Bacterial Biotransformation [19]	Compound	Bacterial Biotransformation [1]	Bacterial Biotransformation [6]	Bacterial Biotransformation [20]
Compound NOT metabolized	Compound NOT metabolized	Compound NOT metabolized	Compound NOT metabolized	Compound NOT metabolized	Compound NOT metabolized	Compound NOT metabolized	Compound NOT metabolized	Compound NOT metabolized	Compound NOT metabolized	Compound NOT metabolized	Compound NOT metabolized	Compound NOT metabolized					C=CCc1ccccc1OCC(O)CNC(C)C (stereo not drawn) [ALPRENOLOL]	Compound NOT metabolized	Compound NOT metabolized	
Compound NOT metabolized	Compound metabolized	Compound NOT metabolized	Compound NOT metabolized	Compound NOT metabolized	Compound NOT metabolized	Compound NOT metabolized	Compound NOT metabolized	Compound NOT metabolized	Compound NOT metabolized	Compound NOT metabolized	Compound NOT metabolized	Compound NOT metabolized	Compound NOT metabolized	Compound NOT metabolized	Compound NOT metabolized	Compound NOT metabolized	O=C1CN2Cc3c(ccc(Cl)c3Cl)N=C2N1 [ANAGRELIDE]		Compound NOT metabolized	
Compound NOT metabolized		Compound NOT metabolized	Compound NOT metabolized	Compound NOT metabolized	Compound NOT metabolized	Compound NOT metabolized	Compound NOT metabolized	Compound NOT metabolized	Compound NOT metabolized	Compound NOT metabolized	Compound NOT metabolized	Compound NOT metabolized		Compound NOT metabolized	Compound NOT metabolized	Compound NOT metabolized	CC(C)NCC(O)COc1ccc(CCOCC2CC2)cc1 (stereo not drawn) [BETAXOLOL]	Compound NOT metabolized		Compound NOT metabolized
Compound NOT metabolized	Compound NOT metabolized	Compound NOT metabolized	Compound NOT metabolized	Compound NOT metabolized	Compound NOT metabolized	Compound NOT metabolized	Compound NOT metabolized	Compound NOT metabolized	Compound NOT metabolized	Compound NOT metabolized	Compound NOT metabolized	Compound NOT metabolized	Compound NOT metabolized	Compound NOT metabolized	Compound NOT metabolized	Compound NOT metabolized	CC(C)NCC(O)COc1ccc(COCCOC(C)C)cc1.CC(C)NCC(O)COc1ccc(COCCOC(C)C)cc1.O=C(O)/C=C/C(=O)O (stereo not drawn) [BISOPROLOL FUMARATE]		Compound NOT metabolized	
Compound NOT metabolized		Compound NOT metabolized	Compound NOT metabolized	Compound NOT metabolized	Compound NOT metabolized	Compound NOT metabolized	Compound NOT metabolized	Compound NOT metabolized	Compound NOT metabolized	Compound NOT metabolized	Compound NOT metabolized	Compound NOT metabolized		Compound NOT metabolized	Compound NOT metabolized	Compound NOT metabolized	Br.CN(C)CCCC1(c2ccc(F)cc2)OCc2cc(C#N)ccc21 (stereo not drawn) [CITALOPRAM HYDROBROMIDE]	Compound NOT metabolized		Compound NOT metabolized
	Compound metabolized			Compound NOT metabolized	Compound NOT metabolized	Compound NOT metabolized	Compound NOT metabolized	Compound NOT metabolized	Compound NOT metabolized	Compound metabolized	Compound metabolized		Compound metabolized	Compound metabolized	Compound NOT metabolized		CCOC(=O)[C@H](CCc1ccccc1)N[C@@H](C)C(=O)N1[C@H](C(=O)O)C[C@H]2CCCC[C@@H]21 [TRANDOLAPRIL]		Compound metabolized	Compound NOT metabolized

Compound	Bacterial Biotransformation [2]	Bacterial Biotransformation [3]	Bacterial Biotransformation [4]	Bacterial Biotransformation [5]	Bacterial Biotransformation [7]	Bacterial Biotransformation [8]	Bacterial Biotransformation [9]	Bacterial Biotransformation [10]	Bacterial Biotransformation [11]	Bacterial Biotransformation [12]	Bacterial Biotransformation [13]	Bacterial Biotransformation [14]	Bacterial Biotransformation [15]	Bacterial Biotransformation [16]	Bacterial Biotransformation [17]	Bacterial Biotransformation [18]	Bacterial Biotransformation [19]	Bacterial Biotransformation [1]	Bacterial Biotransformation [6]	Bacterial Biotransformation [20]
CN(C)C(=O)Oc1cc(OC(=O)N(C)C)cc(C(O)CNC(C)(C)C)c1 (stereo not drawn) [BAMBUTEROL]	Compound NOT metabolized	Compound NOT metabolized	Compound NOT metabolized	Compound NOT metabolized	Compound NOT metabolized	Compound NOT metabolized	Compound NOT metabolized	Compound NOT metabolized	Compound NOT metabolized	Compound NOT metabolized	Compound NOT metabolized	Compound NOT metabolized	Compound NOT metabolized		Compound NOT metabolized	Compound NOT metabolized	Compound NOT metabolized	Compound NOT metabolized	Compound NOT metabolized	Compound NOT metabolized
CN1C(=O)CCS(=O)(=O)C1c1ccc(Cl)cc1 (stereo not drawn) [CHLORMEZANONE]	Compound NOT metabolized		Compound NOT metabolized			Compound NOT metabolized		Compound NOT metabolized	Compound NOT metabolized	Compound NOT metabolized		Compound NOT metabolized		Compound NOT metabolized		Compound NOT metabolized	Compound NOT metabolized	Compound NOT metabolized	Compound NOT metabolized	Compound NOT metabolized
O=P1(N(CCCl)CCCl)NCCCO1 (stereo not drawn) [CYCLOPHOSPHAMIDE ANHYDROUS]	Compound NOT metabolized		Compound NOT metabolized	Compound NOT metabolized	Compound NOT metabolized	Compound NOT metabolized			Compound NOT metabolized			Compound NOT metabolized					Compound NOT metabolized	Compound NOT metabolized	Compound NOT metabolized	Compound NOT metabolized
COc1cc(NC(C)CCCN)c2ncccc2c1.O=P(O)(O)O.O=P(O)(O)O (stereo not drawn) [PRIMAQUINE PHOSPHATE]	Compound NOT metabolized		Compound metabolized	Compound NOT metabolized		Compound metabolized	Compound NOT metabolized		Compound NOT metabolized		Compound NOT metabolized	Compound NOT metabolized						Compound NOT metabolized	Compound metabolized	Compound NOT metabolized
